# Changes are numbered by the printed parent chain.
# Experiments:
# AR [1] = target: T1, AR (Homo sapiens, UniProt P10275, T878A); test: In Cell Western AR degradation assay in LNCaP cells; type: cell-based; details: 18 hrs, greater than 50% degradation at 10 μM (method says 20 μM)
# T1 construct: endogenous in cells; host or cells: LNCaP cells
# T1 sequence (P10275 1-920 T878A): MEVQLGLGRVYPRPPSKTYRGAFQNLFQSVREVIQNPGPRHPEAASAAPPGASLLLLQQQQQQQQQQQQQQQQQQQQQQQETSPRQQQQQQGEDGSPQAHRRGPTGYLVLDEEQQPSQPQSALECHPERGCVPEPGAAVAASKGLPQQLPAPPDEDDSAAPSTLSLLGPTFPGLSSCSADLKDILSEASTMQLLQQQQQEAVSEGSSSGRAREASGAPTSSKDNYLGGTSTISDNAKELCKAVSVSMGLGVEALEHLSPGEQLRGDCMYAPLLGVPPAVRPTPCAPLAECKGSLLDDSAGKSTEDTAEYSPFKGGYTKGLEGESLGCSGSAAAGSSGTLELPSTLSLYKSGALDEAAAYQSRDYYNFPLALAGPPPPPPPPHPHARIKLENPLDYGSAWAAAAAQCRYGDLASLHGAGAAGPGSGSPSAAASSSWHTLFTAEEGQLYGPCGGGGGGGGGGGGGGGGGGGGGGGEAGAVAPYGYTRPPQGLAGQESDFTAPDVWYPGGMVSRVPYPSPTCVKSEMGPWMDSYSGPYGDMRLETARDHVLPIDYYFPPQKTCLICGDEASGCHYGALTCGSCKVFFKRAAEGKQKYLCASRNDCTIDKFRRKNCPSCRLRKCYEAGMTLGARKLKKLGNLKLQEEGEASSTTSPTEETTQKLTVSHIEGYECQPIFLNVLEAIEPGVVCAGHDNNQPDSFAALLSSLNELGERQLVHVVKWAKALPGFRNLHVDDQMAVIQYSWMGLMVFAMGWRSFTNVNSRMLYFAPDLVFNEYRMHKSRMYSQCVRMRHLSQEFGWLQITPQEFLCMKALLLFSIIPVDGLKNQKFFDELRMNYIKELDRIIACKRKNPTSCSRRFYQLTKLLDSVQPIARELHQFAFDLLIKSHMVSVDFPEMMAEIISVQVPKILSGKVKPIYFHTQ
# Procedure: In Cell Western (AR degradation Assay, Table 2, B10). LNCaP cells were plated in 96-well clear bottom black plates (20K cells/well) in RPMI supplemented with 8% CFS. Following 48 hr incubation, cells were treated with hormone (20 μM test compound) for 18 hrs. Cells were fixed with formaldehyde (3.7%) and permeabilized using PBS (0.1% TRITON X-100). Cells were incubated with anti-AR antibody (N20, 1:2000), washed with PBS (0.1% Tween), and stained with 2nd antibody (Biotium CF770 goat anti-rabbit, 1:2000). AR protein expression was assessed using the LI-COR Odyssey imaging system. DRAQ5 (DNA stain, 1:10,000, Thermo Scientific) was used to normalize AR protein expression.
# For B4-B7, scoring system is based on the relative AR target gene agonist/antagonist activity of test compounds when compared to benchmark compounds enzalutamide or bicalutamide. […] The lack of agonist activity is desirable for therapies intended to treat CRPC. For B4 and B6, a score of 1 indicates less agonism (highly desired activity) than benchmark compound enzalutamide, a score of 2 indicates equal agonism to enzalutamide (desirable), a score of 3 indicates agonism between enzalutamide and bicalutamide (less desirable activity), a score of 4 indicates equal agonism to bicalutamide (liability), and a score of 5 indicates higher agonism than bicalutamide (liability). For B5 and B7 a score of 1 indicates higher antagonist efficacy (highly desired activity) than benchmark compound enzalutamide, a score of 2 indicates equal antagonist efficacy to enzalutamide (desirable), a score of 3 indicates antagonist efficacy between enzalutamide and bicalutamide (less desirable activity), a score of 4 indicates antagonist efficacy equal to bicalutamide (liability), and a score of 5 indicates antagonist efficacy worse than bicalutamide (liability) For B9, Compounds that degrade AR (greater than 50% degradation at 10 μM) are indicated.
# AR [2] = target: T2, AR (Homo sapiens, UniProt P10275); test: Reporter gene assay, AR transcriptional (MMTV-Luc) in CV1 cells; type: cell-based; details: pcDNA-AR + MMTV-Luc, 0.1 nM R1881 plus test compound, 24 hrs, read-out: B1 = AR transcriptional IC50 (μM) in CV1 cells
# T2 construct: expressed in transfected cells; host or cells: CV1 cells
# T2 sequence (P10275 1-920): T1 sequence (P10275 1-920 T878A) with A878T
# How it was run: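 CV1 cells transiently co-transfected with human AR, MMTV-Luc reporter and Renilla-Luc (transfection efficiency and toxicity read-out), then stimulated 24 h with 0.1 nM R1881 plus increasing test compound concentrations. Firefly and Renilla luciferase quantified by dual-luciferase assay; IC50 derived from concentration-response.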
SMILES,B9 = AR degradation in LNCaP cells (In-Cell Western) (AR [1]),IC50 (AR [2]) [µM]
"CC1(C)CC(=O)C2=C(C1)Nc1ccc3ncccc3c1C2c1ccc(Cl)cc1Cl (racemic) [Compound A88, (±)-12-(2,4-dichlorophenyl)-9,9-dimethyl-8,9,10,12-tetrahydrobenzo[b][4,7]phenanthrolin-11(7H)-one]",Degrader (Compounds that degrade AR (greater than 50% degradation at 10 μM) are indicated),1.1
Cn1ncc2ccc3c(c21)C(c1ccc(Cl)s1)C1=C(CC(C)(C)CC1=O)N3 (centres unmarked) [Compound A109],Degrader (Compounds that degrade AR (greater than 50% degradation at 10 μM) are indicated),4.7
CC1(C)CC(=O)C2=C(C1)Nc1ccc3ncccc3c1C2c1cc(C(F)(F)F)cc(C(F)(F)F)c1 (centres unmarked) [Compound A50],Degrader (Compounds that degrade AR (greater than 50% degradation at 10 μM) are indicated),6
Cn1ncc2ccc3c(c21)C(c1ccc(Br)s1)C1=C(CC(C)(C)CC1=O)N3 (centres unmarked) [Compound A113],Degrader (Compounds that degrade AR (greater than 50% degradation at 10 μM) are indicated),5.1
"O=C1C2=C(C(=O)c3ccccc31)C(c1ccc(F)c(F)c1)c1c(ccc3ncccc13)N2 (racemic) [Compound A85, (±)-14-(3,4-difluorophenyl)naphtho[2,3-b][4,7]phenanthroline-8,13(7H,14H)-dione]",Degrader (Compounds that degrade AR (greater than 50% degradation at 10 μM) are indicated),> 10
CC1(C)CC(=O)C2=C(C1)Nc1ccc3c(c1C2c1ccc(Br)s1)OCO3 (centres unmarked) [Compound A111],Degrader (Compounds that degrade AR (greater than 50% degradation at 10 μM) are indicated),1.4
CC1(C)CC(=O)C2=C(C1)Nc1ccc3c(c1C2c1ccc(Cl)s1)OCO3 (centres unmarked) [Compound A107],Degrader (Compounds that degrade AR (greater than 50% degradation at 10 μM) are indicated),0.9
"CC1(C)CC(=O)C2=C(C1)Nc1ccc3nccnc3c1C2c1cc2ccccc2s1 (racemic) [Compound A93, (±)-12-(benzo[b]thiophen-2-yl)-9,9-dimethyl-8,9,10,12-tetrahydropyrazino[2,3-a]acridin-11(7H)-one]",Degrader (Compounds that degrade AR (greater than 50% degradation at 10 μM) are indicated),1.2
CC1(C)CC(=O)C2=C(C1)Nc1ccc3c(c1C2c1ccc(F)c(F)c1)OCO3 (centres unmarked) [Compound A59],Degrader (Compounds that degrade AR (greater than 50% degradation at 10 μM) are indicated),> 10
CC1(C)CC(=O)C2=C(C1)Nc1ccc3ncccc3c1C2c1csc([N+](=O)[O-])c1 (centres unmarked) [Compound A60],Degrader (Compounds that degrade AR (greater than 50% degradation at 10 μM) are indicated),1.7
CC1(C)CC(=O)C2=C(C1)Nc1ccc3ncccc3c1C2c1cc(Br)cs1 (centres unmarked) [Compound A61],Degrader (Compounds that degrade AR (greater than 50% degradation at 10 μM) are indicated),1.8
"Cc1ccc(C2C3=C(CC(C)(C)CC3=O)Nc3ccc4ncccc4c32)s1 (racemic) [Compound A103, (±)-9,9-dimethyl-12-(5-methylthiophen-2-yl)-8,9,10,12-tetrahydrobenzo[b][4,7]phenanthrolin-11(7H)-one]",Degrader (Compounds that degrade AR (greater than 50% degradation at 10 μM) are indicated),0.3
CC1(C)CC(=O)C2=C(C1)Nc1ccc3ncccc3c1C2c1ccc(Br)s1 (centres unmarked) [Compound A63],Degrader (Compounds that degrade AR (greater than 50% degradation at 10 μM) are indicated),1.9
"CC1(C)CC(=O)C2=C(C1)Nc1ccc3ncncc3c1C2c1ccc(Cl)s1 (racemic) [Compound A101, (±)-12-(5-chlorothiophen-2-yl)-9,9-dimethyl-8,9,10,12-tetrahydropyrimido[5,4-a]acridin-11(7H)-one]",Degrader (Compounds that degrade AR (greater than 50% degradation at 10 μM) are indicated),0.8
CC1(C)CC(=O)C2=C(C1)Nc1ccc3ncccc3c1C2c1cccc(C(F)(F)F)c1 (centres unmarked) [Compound A70],Degrader (Compounds that degrade AR (greater than 50% degradation at 10 μM) are indicated),> 10
CC1(C)CC(=O)C2=C(C1)Nc1ccc3ncccc3c1C2c1ccsc1 (centres unmarked) [Compound A69],Degrader (Compounds that degrade AR (greater than 50% degradation at 10 μM) are indicated),6.1
CC1(C)CC(=O)C2=C(C1)Nc1ccc3ncccc3c1C2c1sccc1Br (centres unmarked) [Compound A62],Degrader (Compounds that degrade AR (greater than 50% degradation at 10 μM) are indicated),> 10
"CC1(C)CC(=O)C2=C(C1)Nc1ccc3ncncc3c1C2c1ccc(Br)s1 (racemic) [Compound A102, (±)-12-(5-bromothiophen-2-yl)-9,9-dimethyl-8,9,10,12-tetrahydropyrimido[5,4-a]acridin-11(7H)-one]",Degrader (Compounds that degrade AR (greater than 50% degradation at 10 μM) are indicated),0.4
CC1(C)CC(=O)C2=C(C1)Nc1ccc3ncccc3c1C2c1ccc(Cl)nc1 (centres unmarked) [Compound A71],Degrader (Compounds that degrade AR (greater than 50% degradation at 10 μM) are indicated),6.9
